Laboratory results published in ChEMBL document CHEMBL3832542, “DailyMed|setid=00f30ef0-e65c-4b41-ad1b-afaab9bcfc7d | CLONIDINE- clonidine patch, extended release|Lake Erie Medical DBA Quality Care Products LLC”.

Tests used:
[1] = Steady-state pharmacokinetic parameters for Clonidine evaluated following transdermal administration of 0.1, 0,2 and 0.3 mg doses of Clonidine to the upper outer arm for 7 days.; details: human, in vivo, topical or ocular
[2] = Pharmacokinetic parameters for Clonidine evaluated following oral or intravenous administration of Clonidine to subjects.; details: human, in vivo

Clc1cccc(Cl)c1N=C1NCCN1 [CLONIDINE]
bioavailability at 168 h [1]: 60%
half-life at 168 h [1]: 24 h
CL renal [2]: 102 mL/min
Vd [2]: 197 L
clearance [2]: 177 mL/min
half-life [2]: 12 to 16 h
